As usually defined, the GI50 is the concentration at which growth is held to half of that of the control.

Data on eleven molecules can be found in ChEMBL document CHEMBL1201862, “PubChem BioAssay data set” (2004).

The structures appear in SMILES notation.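 48-hour exposure; five concentrations; linearly interpolated endpoints. GI50 is the concentration that inhibits growth by half.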 Calls of active or inactive are those of the source. Rule as the data show it: active = GI50 up to about 1.1 µM and inactive = higher.

Some test systems named below: TK-10; HOP-62; OVCAR-3; UACC-257; SF-539; A498; HL-60; SK-MEL-2; SK-MEL-5; SW-620; UO-31; ACHN; NCI-H23; SNB-75; OVCAR-8; RXF 393; M14; MOLT-4.
Experiment in all cases: DTP human tumour cell line panel, 48 h

For `COC(=O)C(=O)C(C(=O)C(=O)Nc1ccc(C)cc1)c1nc2ccc(C(=O)c3ccccc3)cc2nc1O` (centres undefined), the GI50 was > 100 µM (inactive) in the test on TK-10; 46.9 µM (inactive) in the test with HOP-62; > 100 µM (inactive) with OVCAR-3; > 100 µM (inactive) in the test with UACC-257; > 100 µM (inactive) in the test on SF-539; > 100 µM (inactive) in the test with A498. Further, the GI50 was 30.1 µM (inactive) in the test with HL-60; > 100 µM (inactive) with SK-MEL-2; 73.1 µM (inactive) in the test with SK-MEL-5; > 100 µM (inactive) in the test on SW-620; 51.2 µM (inactive) in the test on UO-31; > 100 µM (inactive) in the test with ACHN. Besides, the GI50 in the test on NCI-H23 is > 100 µM (inactive); with SNB-75, 22.3 µM (inactive); in the test with OVCAR-8, 42.2 µM (inactive); in the test with RXF 393 it was 55 µM (inactive).
For `c1ccc([P+](CCC[P+](c2ccccc2)(c2ccccc2)c2ccccc2)(c2ccccc2)c2ccccc2)cc1`, the GI50 in the test with TK-10 is 86.7 µM (inactive); in the test on HOP-62 it was 49.3 µM (inactive); in the test with OVCAR-3, 13.5 µM (inactive); in the test on UACC-257 it was 24 µM (inactive); in the test on SF-539 it was 39 µM (inactive); in the test with A498 it was 93.5 µM (inactive). For the same molecule, the GI50 in the test with M14 is 71.9 µM (inactive); in the test with HL-60, 10.7 µM (inactive); in the test with SK-MEL-5, 20.2 µM (inactive); in the test on SW-620, 36.7 µM (inactive); with UO-31, > 99.5 µM (inactive); in the test with ACHN it was > 100 µM (inactive). For the same molecule, the GI50 was 25.2 µM (inactive) in the test with NCI-H23, 31.8 µM (inactive) with SNB-75, 32.6 µM (inactive) in the test on OVCAR-8 and 64.4 µM (inactive) in the test on RXF 393.
On to `C/C(=C1/N=C(c2cc([N+](=O)[O-])ccc2Cl)N(c2cccc(C)c2)C1=O)c1cc2ccccc2oc1=O`, for which the GI50 in the test on TK-10 was > 100 µM (inactive); in the test on HOP-62, > 100 µM (inactive); with OVCAR-3, 28.3 µM (inactive); in the test with UACC-257 it was 17.3 µM (inactive); with A498, > 100 µM (inactive); in the test on M14, > 100 µM (inactive). Further, the GI50 is 28.7 µM (inactive) in the test on HL-60; > 100 µM (inactive) in the test on SK-MEL-2; 14 µM (inactive) in the test on SK-MEL-5; 29.4 µM (inactive) in the test with SW-620; 21.3 µM (inactive) in the test on MOLT-4; > 100 µM (inactive) in the test on UO-31. Moreover, the GI50 with ACHN is 48.8 µM (inactive); in the test with NCI-H23, 35.2 µM (inactive); with SNB-75, > 100 µM (inactive); in the test on OVCAR-8 it was > 100 µM (inactive); in the test with RXF 393 it was 59.6 µM (inactive).
As for `CCOC(=O)N1CCN(C=S)CC1`, the GI50 in the test on TK-10, in the test with HOP-62, in the test with OVCAR-3, with UACC-257, in the test on SF-539 and with A498 was > 100 µM (inactive) in each case. Further, the GI50 with M14, with HL-60, in the test with SK-MEL-2, with SK-MEL-5, in the test on SW-620 and with MOLT-4 was > 100 µM (inactive) in each case. Besides, the GI50 in the test with UO-31, in the test on ACHN, with NCI-H23, with SNB-75, with OVCAR-8 and with RXF 393 was > 100 µM (inactive) in each case.
Turning to `C[N+](C)(C)CC1CCC/C1=N\OC(=O)c1ccccc1` (centres undefined), the GI50 with HOP-62, in the test on OVCAR-3, with UACC-257, in the test with SF-539, in the test with A498 and in the test on M14 was > 100 µM (inactive) each time. The GI50 in the test with HL-60, in the test with SK-MEL-2, with SK-MEL-5, with SW-620, in the test with MOLT-4 and in the test with UO-31 was > 100 µM (inactive) throughout. For the same molecule, the GI50 with ACHN, in the test on NCI-H23, in the test with SNB-75, in the test with OVCAR-8 and in the test on RXF 393 was > 100 µM (inactive) in each case.
`Cc1nc(-c2nc(C)c(C(=O)/C=C/c3ccc([N+](=O)[O-])cc3)s2)sc1C(=O)/C=C/c1ccc([N+](=O)[O-])cc1`: the GI50 in the test with TK-10, with HOP-62, with OVCAR-3, with UACC-257, in the test with SF-539 and in the test on A498 was > 100 µM (inactive) throughout. Moreover, the GI50 with M14, with HL-60, in the test on SK-MEL-2, with SK-MEL-5, with SW-620 and with MOLT-4 was > 100 µM (inactive) in each case. For the same molecule, the GI50 in the test with UO-31, in the test with ACHN, with NCI-H23, in the test on SNB-75, in the test on OVCAR-8 and with RXF 393 was > 100 µM (inactive) each time.
Take `COc1ccccc1NC(=O)C1=C(C)NC(C)=C(C(=O)Nc2ccccc2OC)C1c1cccc2ccccc12`: the GI50 is > 100 µM (inactive) with TK-10; 64 µM (inactive) with OVCAR-3; > 100 µM (inactive) with UACC-257; > 100 µM (inactive) with SF-539; 33.9 µM (inactive) in the test on A498; > 100 µM (inactive) in the test with M14. The GI50 with HL-60 was 29.9 µM (inactive); in the test on SK-MEL-2 it was > 100 µM (inactive); in the test with SK-MEL-5, 34.4 µM (inactive); in the test on SW-620 it was > 100 µM (inactive); in the test on MOLT-4, 10.6 µM (inactive); in the test on UO-31, 13.7 µM (inactive). The GI50 with ACHN is 11.7 µM (inactive); with NCI-H23 it was 21.7 µM (inactive); in the test on SNB-75, 14.3 µM (inactive); in the test with OVCAR-8 it was > 100 µM (inactive); in the test with RXF 393, 21.2 µM (inactive).
Take `O=C1c2c(n(Cc3ccccc3)c(=O)n2Cc2ccccc2)C(=O)N1Cc1ccccc1`: the GI50 in the test with TK-10 was > 100 µM (inactive); in the test on HOP-62, > 100 µM (inactive); in the test on OVCAR-3, 49.2 µM (inactive); with UACC-257, 67.6 µM (inactive); in the test on SF-539 it was > 100 µM (inactive); with A498, 70 µM (inactive). The GI50 with M14 is > 100 µM (inactive); in the test with HL-60 it was 0.782 µM (active); in the test with SK-MEL-2, 46.3 µM (inactive); in the test with SK-MEL-5, 50.5 µM (inactive); in the test with SW-620 it was 47.9 µM (inactive); in the test with MOLT-4 it was 54.6 µM (inactive). The GI50 in the test with UO-31 is 50.2 µM (inactive); with ACHN, 91.6 µM (inactive); with NCI-H23, 38.6 µM (inactive); in the test with SNB-75, 64.7 µM (inactive); with OVCAR-8, > 100 µM (inactive); in the test with RXF 393 it was 37.9 µM (inactive).
`C#CCNC(=O)ON1C(=O)CCC1=O`: the GI50 in the test on TK-10, with HOP-62, in the test with OVCAR-3, in the test on UACC-257, in the test on SF-539 and in the test with A498 was > 100 µM (inactive) in each case. In addition, the GI50 in the test on HL-60, with SK-MEL-2, in the test with SW-620, in the test on MOLT-4, with UO-31 and in the test on ACHN was > 100 µM (inactive) throughout. In addition, the GI50 in the test on NCI-H23, in the test with SNB-75, in the test with OVCAR-8 and in the test on RXF 393 was > 100 µM (inactive) throughout.
Regarding `COc1ccc(C2[C@H]3C(=O)N(c4ccc(Cc5ccc(N6C(=O)[C@@H]7ON(c8ccccc8)C(c8ccc(OC)cc8)[C@@H]7C6=O)cc5)cc4)C(=O)[C@H]3ON2c2ccccc2)cc1` (some centres undefined), the GI50 in the test with TK-10, in the test on HOP-62, with OVCAR-3, in the test with UACC-257, in the test with SF-539 and in the test on A498 was > 100 µM (inactive) in each case. Also, the GI50 with M14 is 23.1 µM (inactive); with HL-60 it was > 100 µM (inactive); with SK-MEL-2 it was > 100 µM (inactive); in the test on SK-MEL-5 it was 96.6 µM (inactive); with SW-620, > 100 µM (inactive); in the test with MOLT-4 it was > 100 µM (inactive). Also, the GI50 in the test with UO-31, with ACHN, in the test with NCI-H23, with SNB-75, in the test on OVCAR-8 and with RXF 393 was > 100 µM (inactive) throughout.
Turning to `O=C(Cc1nc2ccccc2c(=O)n1-c1c(Cl)cccc1Cl)c1ccncc1`, the GI50 with TK-10 is > 10 µM (inactive); in the test with HOP-62, 21.3 µM (inactive); with OVCAR-3 it was 21.3 µM (inactive); in the test on UACC-257, 22.3 µM (inactive); in the test with SF-539 it was 18.4 µM (inactive); in the test with A498, 30.5 µM (inactive). Also, the GI50 in the test with M14 is 30.6 µM (inactive); in the test on HL-60, 12 µM (inactive); in the test on SK-MEL-2, 21.1 µM (inactive); in the test on SK-MEL-5, 15.9 µM (inactive); in the test on SW-620, 36.6 µM (inactive); with MOLT-4, 19 µM (inactive). For the same molecule, the GI50 with UO-31 was 13.3 µM (inactive); with ACHN, 17.9 µM (inactive); with NCI-H23, 36.8 µM (inactive); with SNB-75 it was 25.1 µM (inactive); in the test on OVCAR-8, 29.7 µM (inactive); in the test on RXF 393, 18.5 µM (inactive).
